Reference: ChEMBL document CHEMBL4138043, “Quinoides and VEGFR2 TKIs influence the fate of hepatocellular carcinoma and its cancer stem cells” (Medchemcomm, 2017)
pIC50: −log10 of the molar value.

Legend:
Mahlavu [1] = experiment: Disruption of cancer stem cell subpopulation of human Mahlavu cells assessed as effect on CD90 levels at IC100 after 72 hrs by flow cytometric method (reference value: 0.6%); assay type: functional
Huh-7 [2] = experiment: Disruption of cancer stem cell subpopulation of human HuH7 cells assessed as effect on EpCAM levels at IC100 after 72 hrs by flow cytometric method (reference value: 13.7 to 33%); assay type: functional
Mahlavu [3] = experiment: Disruption of cancer stem cell subpopulation of human Mahlavu cells assessed as aggressiveness factor at IC100 after 72 hrs by flow cytometric method; assay type: functional
SNU-475 [4] = experiment: Disruption of cancer stem cell subpopulation of human SNU475 cells assessed as effect on CD90 levels at IC100 after 72 hrs by flow cytometric method (reference value: 0.2%); assay type: functional
Hep 3B2 [5] = experiment: Disruption of cancer stem cell subpopulation of human Hep3B cells assessed as effect on CD133 levels at IC100 after 72 hrs by flow cytometric method (reference value: 0 to 0.6%); assay type: functional
Hep 3B2 [6] = experiment: Disruption of cancer stem cell subpopulation of human Hep3B cells assessed as aggressiveness factor at IC100 after 72 hrs by flow cytometric method; assay type: functional
SNU-475 [7] = experiment: Disruption of cancer stem cell subpopulation of human SNU475 cells assessed as aggressiveness factor at IC100 after 72 hrs by flow cytometric method; assay type: functional
Huh-7 [8] = experiment: Disruption of cancer stem cell subpopulation of human HuH7 cells assessed as effect on CD133 levels at IC100 after 72 hrs by flow cytometric method (reference value: 0 to 0.6%); assay type: functional
Hep 3B2 [9] = experiment: Cytotoxicity against human Hep3B cells assessed as growth inhibition after 72 hrs by SRB assay; assay type: functional, cell-based; details: for pIC50: Homo sapiens, Hep3B, 72 h, read-out: IC50
SNU-475 [10] = experiment: Cytotoxicity against human SNU475 cells assessed as growth inhibition after 72 hrs by SRB assay; assay type: functional, cell-based; details: for pIC50: Homo sapiens, SNU-475, 72 h, read-out: IC50
Huh-7 [11] = experiment: Disruption of cancer stem cell subpopulation of human HuH7 cells assessed as aggressiveness factor at IC100 after 72 hrs by flow cytometric method; assay type: functional
Hep 3B2 [12] = experiment: Disruption of cancer stem cell subpopulation of human Hep3B cells assessed as effect on EpCAM levels at IC100 after 72 hrs by flow cytometric method (reference value: 0 to 0.6%); assay type: functional
Huh-7 [13] = experiment: Cytotoxicity against human HuH7 cells assessed as growth inhibition after 72 hrs by SRB assay; assay type: functional, cell-based; details: for pIC50: Homo sapiens, Huh-7, 72 h, read-out: IC50
Mahlavu [14] = experiment: Cytotoxicity against human Mahlavu cells assessed as growth inhibition after 72 hrs by SRB assay; assay type: functional, cell-based; details: for pIC50: Homo sapiens, Mahlavu, 72 h, read-out: IC50
[15] = target: Vascular endothelial growth factor receptor 2 (Homo sapiens, UniProt P35968); experiment: Inhibition of N-terminal GST-fused human VEGFR2 C-terminal fragment expressed in Sf9 insect cells using poly(Glu:Tyr) 4:1 as substrate; assay type: cell-based
Chain of Vascular endothelial growth factor receptor 2 (P35968 whole entry, the tested form may be a part): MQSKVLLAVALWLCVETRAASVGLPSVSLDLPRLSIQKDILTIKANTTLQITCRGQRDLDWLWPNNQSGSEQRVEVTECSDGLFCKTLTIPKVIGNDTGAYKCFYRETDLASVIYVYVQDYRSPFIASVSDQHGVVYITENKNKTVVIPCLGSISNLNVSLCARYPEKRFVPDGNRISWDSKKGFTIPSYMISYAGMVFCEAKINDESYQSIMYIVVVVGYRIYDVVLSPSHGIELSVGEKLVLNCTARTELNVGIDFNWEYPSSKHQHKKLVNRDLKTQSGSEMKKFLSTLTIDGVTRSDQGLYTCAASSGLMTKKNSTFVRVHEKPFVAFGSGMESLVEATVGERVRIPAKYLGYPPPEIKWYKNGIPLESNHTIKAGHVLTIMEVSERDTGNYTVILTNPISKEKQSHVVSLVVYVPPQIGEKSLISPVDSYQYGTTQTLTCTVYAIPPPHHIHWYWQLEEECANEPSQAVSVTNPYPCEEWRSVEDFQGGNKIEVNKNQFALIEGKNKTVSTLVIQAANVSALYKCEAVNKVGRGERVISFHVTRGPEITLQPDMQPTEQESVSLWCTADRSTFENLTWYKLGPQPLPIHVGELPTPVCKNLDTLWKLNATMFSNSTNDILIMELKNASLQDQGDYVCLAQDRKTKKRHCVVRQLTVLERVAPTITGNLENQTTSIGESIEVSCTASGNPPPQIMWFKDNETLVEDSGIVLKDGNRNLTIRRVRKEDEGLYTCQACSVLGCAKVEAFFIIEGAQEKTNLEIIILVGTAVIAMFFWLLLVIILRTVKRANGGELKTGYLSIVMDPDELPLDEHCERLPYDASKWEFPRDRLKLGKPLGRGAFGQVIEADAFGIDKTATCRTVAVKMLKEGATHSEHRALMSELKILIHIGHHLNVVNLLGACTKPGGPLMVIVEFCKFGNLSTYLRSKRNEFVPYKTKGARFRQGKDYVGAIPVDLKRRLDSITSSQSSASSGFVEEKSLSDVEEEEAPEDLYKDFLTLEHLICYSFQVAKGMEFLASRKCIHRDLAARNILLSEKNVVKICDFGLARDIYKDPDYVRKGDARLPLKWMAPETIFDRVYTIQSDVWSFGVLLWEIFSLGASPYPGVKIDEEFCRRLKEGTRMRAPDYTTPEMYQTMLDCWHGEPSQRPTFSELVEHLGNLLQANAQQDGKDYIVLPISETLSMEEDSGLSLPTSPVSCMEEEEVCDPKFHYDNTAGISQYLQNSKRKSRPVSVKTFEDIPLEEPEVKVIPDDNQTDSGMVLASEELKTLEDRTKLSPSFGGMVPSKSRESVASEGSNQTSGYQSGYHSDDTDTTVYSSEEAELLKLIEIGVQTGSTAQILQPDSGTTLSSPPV

[16] = target: Focal adhesion kinase 1 (Homo sapiens) (UniProt Q05397); experiment: Inhibition of FAK phosphorylation at Y397 in human bone marrow mesenchymal stem cells at 5 uM after 1 hr by immunoblot method relative to control
Chain of Focal adhesion kinase 1 (Homo sapiens) (Q05397 2-1052 limits assumed): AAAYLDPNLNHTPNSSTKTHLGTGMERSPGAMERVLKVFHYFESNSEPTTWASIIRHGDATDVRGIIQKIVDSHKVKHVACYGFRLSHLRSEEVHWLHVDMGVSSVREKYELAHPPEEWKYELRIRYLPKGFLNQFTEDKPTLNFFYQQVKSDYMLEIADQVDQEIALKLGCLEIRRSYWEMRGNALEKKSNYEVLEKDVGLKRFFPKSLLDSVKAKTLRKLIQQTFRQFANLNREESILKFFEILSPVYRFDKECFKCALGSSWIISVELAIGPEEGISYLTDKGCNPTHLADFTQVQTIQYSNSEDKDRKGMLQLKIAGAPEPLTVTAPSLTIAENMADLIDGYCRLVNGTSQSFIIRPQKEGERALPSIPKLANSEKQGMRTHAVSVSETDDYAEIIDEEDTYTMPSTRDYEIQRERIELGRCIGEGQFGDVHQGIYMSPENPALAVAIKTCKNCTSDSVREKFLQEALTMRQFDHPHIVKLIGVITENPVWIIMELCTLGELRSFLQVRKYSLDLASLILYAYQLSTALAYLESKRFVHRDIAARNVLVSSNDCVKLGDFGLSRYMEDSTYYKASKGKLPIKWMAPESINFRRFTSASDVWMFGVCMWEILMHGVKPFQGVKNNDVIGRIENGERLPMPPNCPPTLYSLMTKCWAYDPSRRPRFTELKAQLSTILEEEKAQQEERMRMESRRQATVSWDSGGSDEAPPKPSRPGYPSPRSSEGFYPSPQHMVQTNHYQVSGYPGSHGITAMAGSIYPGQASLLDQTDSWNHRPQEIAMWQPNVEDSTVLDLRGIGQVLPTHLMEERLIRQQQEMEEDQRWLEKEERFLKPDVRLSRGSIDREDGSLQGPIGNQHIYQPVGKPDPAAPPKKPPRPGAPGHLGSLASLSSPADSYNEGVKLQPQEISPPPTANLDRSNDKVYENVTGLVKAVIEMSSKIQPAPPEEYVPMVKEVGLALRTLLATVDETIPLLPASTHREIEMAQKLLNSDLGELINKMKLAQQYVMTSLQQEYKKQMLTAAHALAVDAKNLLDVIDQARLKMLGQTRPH

[17] = target: Focal adhesion kinase 1 (Homo sapiens) (UniProt Q05397); experiment: Inhibition of FAK phosphorylation at Y397 in human bone marrow mesenchymal stem cells at 1 uM after 1 hr by immunoblot method relative to control

Row | SMILES | Activity (Mahlavu [1]) | Activity (Huh-7 [2]) | fold change (FC) (Mahlavu [3]) | Activity (SNU-475 [4]) | Activity (Hep 3B2 [5]) | fold change (FC) (Hep 3B2 [6]) | fold change (FC) (SNU-475 [7]) | Activity (Huh-7 [8]) | fold change (FC) (Huh-7 [11]) | Activity (Hep 3B2 [12]) | pIC50 (Hep 3B2 [9]) | pIC50 (Huh-7 [13]) | pIC50 (Mahlavu [14]) | pIC50 (SNU-475 [10]) | also measured
1 | Cc1ccc([S@+]([O-])C2=C(Cl)C(=O)C=CC2=O)cc1 | 0.5% | 24.7% | 0.8 | 0.3% | 0% | 1 | 1.5 | 0.2% | 0.7 | 76% | – | – | – | – | IC50 (Hep 3B2 [9]; hep 3b2): Not Active; IC50 (SNU-475 [10]; snu-475): Not Active; IC50 (Huh-7 [13]; huh-7): Not Active; IC50 (Mahlavu [14]; mahlavu): Not Active
2 | CNC(=O)c1cc(Oc2ccc(NC(=O)Nc3ccc(Cl)c(C(F)(F)F)c3)cc2)ccn1.Cc1ccc(S(=O)(=O)O)cc1 [SORAFENIB TOSYLATE] | – | 31.8% | – | – | – | – | – | 0.2% | – | – | 5.82 | 5.80 | 6.15 | – | –
3 | CCS(=O)(=O)c1ccc(OC)c(Nc2nc(-c3cccc(-c4ccccn4)c3)co2)c1 | – | 23.7% | – | – | – | 2.6 | – | 0.1% | 1.7 | – | 6.05 | 6.40 | 5.96 | – | pIC50 [15]: 3.25
4 | CCS(=O)(=O)c1ccc(OC)c(Nc2ncc(-c3cccc(-c4cc[nH]c4)c3)o2)c1 | – | 32.1% | – | – | – | 2.1 | – | 0.9% | 2.3 | – | 5.68 | 5.77 | 6.10 | – | pIC50 [15]: 7.74
5 | COC1=CC(=O)C(C)=C([S+]([O-])c2ccc(C)cc2)C1=O (racemic) | 1.3% | 41.3% | 2.2 | 0.4% | 0% | 1.1 | 2 | 0.8% | 1.3 | 84.9% | 5.37 | 5.26 | 4.94 | 5.21 | –
6 | COC1=CC(=O)C([S@@+]([O-])c2ccc(C)cc2)=CC1=O | 1.4% | 29.1% | 2.3 | 0.4% | 0% | 1.1 | 2 | 0.3% | 0.9 | 84.7% | 5.00 | 4.97 | 4.95 | 5.05 | –
7 | CCOC1=CC(=O)C(C)=C([S@@+]([O-])c2ccc(C)cc2)C1=O | 1% | 40.6% | 1.7 | 0.1% | 0% | 1 | 0.5 | 0.3% | 1.2 | 80.1% | 4.92 | 5.15 | 4.74 | 5.26 | –
8 | COC1=CC(=O)C(C)=C([S@@+]([O-])c2ccc(C)cc2)C1=O | 0.8% | 35.8% | 1.3 | 0.1% | 0% | 1.1 | 0.5 | 0.5% | 1.1 | 87.8% | 5.26 | 5.10 | 4.84 | 4.98 | –
9 | CCS(=O)(=O)c1ccc(OC)c(Nc2ncc(-c3cccc(-c4ccccn4)c3)o2)c1 | – | 23.9% | – | – | – | 1.7 | – | 0.1% | 1.7 | – | 6.15 | 5.82 | 5.92 | – | –
10 | Cc1ccc([S@+]([O-])C2=CC(=O)C=CC2=O)cc1 | 0.2% | 30.6% | 0.3 | 0% | 0% | 1.1 | 0 | 0.2% | 0.9 | 81.4% | 4.76 | 4.70 | 4.50 | 6.52 | –
11 | C[C@H](NC(=O)Cc1cc(F)cc(F)c1)C(=O)N[C@H](C(=O)OC(C)(C)C)c1ccccc1 | 0.1% | 10.2 - 26.7% | 0.2 | 0.1% | 0% | 0.7 | 0.5 | – | 0.8 | 68.8% | 5.30 | 5.30 | 5.30 | 6.22 | –
12 | CO[C@H]1[C@@H](OC)C[C@H](C)[C@@H](OC)C2=CC(=O)C=C(NC(=O)/C(C)=C/C=C\[C@H](OC)[C@@H](OC(N)=O)/C(C)=C/[C@@H]1C)C2=O | – | – | – | – | – | – | – | – | – | – | – | – | – | – | inhibition [16]: 78%; inhibition [17]: 61%
13 | CCS(=O)(=O)c1ccc(OC)c(Nc2ncc(-c3cc(-c4ccccn4)cc(-c4ccccn4)c3)o2)c1 | – | 31.6% | – | – | – | 2.9 | – | 0.4% | 2.3 | – | 5.70 | 5.55 | 5.52 | – | –
